Assay results published in patent publication US8987195B2 (priority 2012, dated 2015).

Experiments:
HCV genotype 1b replicon = experiment: HCV replicon assay, genotype 1b replicon EC50; format: cell-based, Hepatitis C virus; details: Hepatitis C virus, genotype 1b replicon; read-out: EC50 [gt-1b]
Procedure, shortened: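 Readout was replicon RNA copy number, by 32P-probe protection or TaqMan normalized to cellular cyclophilin A RNA, or luciferase activity for luciferase:Neo^r fusion lines. Cells were exposed to serially diluted compound for 24-48 hours without G418, then washed and lysed. EC50 derived from four-parameter fit relative to DMSO.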

[1] = biological target: HCV NS3/4A protease genotype 1b (Hepatitis C virus genotype 1b, UniProt P26663); experiment: HCV NS3/4A protease time-resolved fluorescence (TRF) assay, Ki against genotype 1b; format: biochemical; details: IC50 [gt-1b] (nM), NS3/4A genotype 1b, enzyme 0.2 nM
Procedure, shortened: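 Ki was converted from fitted IC50 using IC50=Ki(1+[S]/KM) and 25 nM substrate. Protease (genotype 1b 0.2 nM, A156T 0.4 nM, 3a 0.025 nM) and compound were pre-mixed 30 min in pH 7.5 HEPES/NaCl/glycerol/DTT buffer. Cleavage then proceeded 2.5 h at room temperature, detected by time-resolved europium fluorescence (340/615 nm).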

CC1(S(=O)(=O)NC(=O)[C@@]23C[C@H]2/C=C\CCCCC[C@H](NC(=O)OC2CCCCC2)C(=O)N2C[C@@]4(CCc5c(c(C6CC6)nc6c(F)cccc56)O4)C[C@H]2C(=O)N3)CC1 [Example 166, cyclohexyl [(2R,6S,12Z,13aS,14aR,16aS)-5′-cyclopropyl-7′-fluoro-14a-{[(1-methylcyclopropyl)sulfonyl]carbamoyl}-5,16-dioxo-1,1′,2′,5,6,7,8,9,10,11,13a,14,14a,15,16,16a-hexadecahydrospiro[cyclopropa[e]pyrrolo[1,2-a][1,4]diazacyclopentadecine-2,3′-pyrano[2,3-c]quinolin]-6-yl]carbamate]
EC50 (HCV genotype 1b replicon): 2.4 nM
IC50 [1]: 0.019 nM

CC(C)C1(OC(=O)N[C@H]2CCCCC/C=C\[C@@H]3C[C@@]3(C(=O)NS(=O)(=O)C3(C)CC3)NC(=O)[C@@H]3C[C@]4(CCc5c(c(C6CC6)nc6c(F)cccc56)O4)CN3C2=O)CC1 [Example 167, 1-(propan-2-yl)cyclopropyl [(2R,6S,12Z,13aS,14aR,16aS)-5′-cyclopropyl-7′-fluoro-14a-{[(1-methylcyclopropyl)sulfonyl]carbamoyl}-5,16-dioxo-1,1′,2′,5,6,7,8,9,10,11,13a,14,14a,15,16,16a-hexadecahydrospiro[cyclopropa[e]pyrrolo[1,2-a][1,4]diazacyclopentadecine-2,3′-pyrano[2,3-c]quinolin]-6-yl]carbamate]
EC50 (HCV genotype 1b replicon): 1.88 nM
IC50 [1]: 0.02 nM

CC1(OC(=O)N[C@H]2CCCCC/C=C\[C@@H]3C[C@@]3(C(=O)NS(=O)(=O)C3(C)CC3)NC(=O)[C@@H]3C[C@]4(CCc5c(c(C6CC6)nc6c(F)cccc56)O4)CN3C2=O)CC1 [Example 168, 1-methylcyclopropyl [(2R,6S,12Z,13aS,14aR,16aS)-5′-cyclopropyl-7′-fluoro-14a-{[(1-methylcyclopropyl)sulfonyl]carbamoyl}-5,16-dioxo-1,1′,2′,5,6,7,8,9,10,11,13a,14,14a,15,16,16a-hexadecahydrospiro[cyclopropa[e]pyrrolo[1,2-a][1,4]diazacyclopentadecine-2,3′-pyrano[2,3-c]quinolin]-6-yl]carbamate]
EC50 (HCV genotype 1b replicon): 3.73 nM
IC50 [1]: 0.013 nM

COc1ccc2nc(C(C)C)c3c(c2c1)CC[C@]1(C[C@H]2C(=O)N[C@]4(C(=O)NS(=O)(=O)C5(C)CC5)C[C@H]4/C=C\CCCCC[C@H](NC(=O)OC4(C)CCC4)C(=O)N2C1)O3 [Example 169, 1-methylcyclobutyl [(2R,6S,12Z,13aS,14aR,16aS)-9′-methoxy-14a-{[(1-methylcyclopropyl)sulfonyl]carbamoyl}-5,16-dioxo-5′-(propan-2-yl)-1,1′,2′,5,6,7,8,9,10,11,13a,14,14a,15,16,16a-hexadecahydrospiro[cyclopropa[e]pyrrolo[1,2-a][1,4]diazacyclopentadecine-2,3′-pyrano[2,3-c]quinolin]-6-yl]carbamate]
EC50 (HCV genotype 1b replicon): 1.53 nM
IC50 [1]: 0.019 nM

COc1ccc2nc(C3CCC3)c3c(c2c1)CC[C@]1(C[C@H]2C(=O)N[C@]4(C(=O)NS(=O)(=O)C5(C)CC5)C[C@H]4/C=C\CCCCC[C@H](NC(=O)OC4CCCC4)C(=O)N2C1)O3 [Example 170, cyclopentyl [(2R,6S,12Z,13aS,14aR,16aS)-5′-cyclobutyl-9′-methoxy-14a-{[(1-methylcyclopropyl)sulfonyl]carbamoyl}-5,16-dioxo-1,1′,2′,5,6,7,8,9,10,11,13a,14,14a,15,16,16a-hexadecahydrospiro[cyclopropa[e]pyrrolo[1,2-a][1,4]diazacyclopentadecine-2,3′-pyrano[2,3-c]quinolin]-6-yl]carbamate]
EC50 (HCV genotype 1b replicon): 2.65 nM
IC50 [1]: 0.013 nM

COc1ccc2nc(C3CCC3)c3c(c2c1)CC[C@]1(C[C@H]2C(=O)N[C@]4(C(=O)NS(=O)(=O)C5(C)CC5)C[C@H]4/C=C\CCCCC[C@H](NC(=O)OCC(C)C)C(=O)N2C1)O3 [Example 171, 2-methylpropyl [(2R,6S,12Z,13aS,14aR,16aS)-5′-cyclobutyl-9′-methoxy-14a-{[(1-methylcyclopropyl)sulfonyl]carbamoyl}-5,16-dioxo-1,1′,2′,5,6,7,8,9,10,11,13a,14,14a,15,16,16a-hexadecahydrospiro[cyclopropa[e]pyrrolo[1,2-a][1,4]diazacyclopentadecine-2,3′-pyrano[2,3-c]quinolin]-6-yl]carbamate]
EC50 (HCV genotype 1b replicon): 1.62 nM
IC50 [1]: 0.013 nM

Cc1nc2ccccc2c2c1O[C@]1(CC2)C[C@H]2C(=O)N[C@]3(C(=O)NS(=O)(=O)C4(C)CC4)C[C@H]3/C=C\CCCCC[C@H](NCCc3ccccc3)C(=O)N2C1 [Example 172, (2R,6S,12Z,13aS,14aR,16aS)-5′-methyl-N-[(1-methylcyclopropyl)sulfonyl]-5,16-dioxo-6-[(2-phenylethyl)amino]-1,1′,2′,6,7,8,9,10,11,13a,14,15,16,16a-tetradecahydrospiro[cyclopropa[e]pyrrolo[1,2-a][1,4]diazacyclopentadecine-2,3′-pyrano[2,3-c]quinoline]-14a(5H)-carboxamide]
EC50 (HCV genotype 1b replicon): 7.99 nM
IC50 [1]: 0.24 nM

Cc1nc2ccccc2c2c1O[C@]1(CC2)C[C@H]2C(=O)N[C@]3(C(=O)NS(=O)(=O)C4(C)CC4)C[C@H]3/C=C\CCCCC[C@H](N(CCc3ccccc3)CCc3ccccc3)C(=O)N2C1 [Example 173, (2R,6S,12Z,13aS,14aR,16aS)-6-[bis(2-phenylethyl)amino]-5′-methyl-N-[(1-methylcyclopropyl)sulfonyl]-5,16-dioxo-1,1′,2′,6,7,8,9,10,11,13a,14,15,16,16a-tetradecahydrospiro[cyclopropa[e]pyrrolo[1,2-a][1,4]diazacyclopentadecine-2,3′-pyrano[2,3-c]quinoline]-14a(5H)-carboxamide]
EC50 (HCV genotype 1b replicon): > 100 nM
IC50 [1]: 6.27 nM

Cc1nc2ccc(OC(F)(F)F)cc2c2c1O[C@]1(CC2)C[C@H]2C(=O)N[C@]3(C(=O)NS(=O)(=O)C4(C)CC4)C[C@H]3/C=C\CCCCC[C@H](NC(=O)OC3(C)CCC3)C(=O)N2C1 [Example 174, 1-methylcyclobutyl [(2R,6S,12Z,13aS,14aR,16aS)-5′-methyl-14a-{[(1-methylcyclopropyl)sulfonyl]carbamoyl}-5,16-dioxo-9′-(trifluoromethoxy)-1,1′,2′,5,6,7,8,9,10,11,13a,14,14a,15,16,16a-hexadecahydrospiro[cyclopropa[e]pyrrolo[1,2-a][1,4]diazacyclopentadecine-2,3′-pyrano[2,3-c]quinolin]-6-yl]carbamate]
EC50 (HCV genotype 1b replicon): 2.33 nM
IC50 [1]: 0.007 nM

CC1(S(=O)(=O)NC(=O)[C@@]23C[C@H]2/C=C\CCCCC[C@H](NC(=O)OC2CCC2)C(=O)N2C[C@@]4(CCc5c(c(C6CC6)nc6c(F)cccc56)O4)C[C@H]2C(=O)N3)CC1 [Example 175, cyclobutyl [(2R,6S,12Z,13aS,14aR,16aS)-5′-cyclopropyl-7′-fluoro-14a-{[(1-methylcyclopropyl)sulfonyl]carbamoyl}-5,16-dioxo-1,1′,2′,5,6,7,8,9,10,11,13a,14,14a,15,16,16a-hexadecahydrospiro[cyclopropa[e]pyrrolo[1,2-a][1,4]diazacyclopentadecine-2,3′-pyrano[2,3-c]quinolin]-6-yl]carbamate]
EC50 (HCV genotype 1b replicon): 1.67 nM
IC50 [1]: 0.028 nM

CC1(OC(=O)N[C@H]2CCCCC/C=C\[C@@H]3C[C@@]3(C(=O)NS(=O)(=O)C3(C)CC3)NC(=O)[C@@H]3C[C@]4(CCc5c(c(C6CC6)nc6c(F)cccc56)O4)CN3C2=O)CCCCC1 [Example 176, 1-methylcyclohexyl [(2R,6S,12Z,13aS,14aR,16aS)-5′-cyclopropyl-7′-fluoro-14a-{[(1-methylcyclopropyl)sulfonyl]carbamoyl}-5,16-dioxo-1,1′,2′,5,6,7,8,9,10,11,13a,14,14a,15,16,16a-hexadecahydrospiro[cyclopropa[e]pyrrolo[1,2-a][1,4]diazacyclopentadecine-2,3′-pyrano[2,3-c]quinolin]-6-yl]carbamate]
EC50 (HCV genotype 1b replicon): 2.26 nM
IC50 [1]: 0.026 nM

Cc1nc2ccc(OC(F)(F)F)cc2c2c1O[C@]1(CC2)C[C@H]2C(=O)N[C@]3(C(=O)NS(=O)(=O)C4(C)CC4)C[C@H]3/C=C\CCCCC[C@H](NC(=O)OCC3COC3)C(=O)N2C1 [Example 177, oxetan-3-ylmethyl [(2R,6S,12Z,13aS,14aR,16aS)-5′-methyl-14a-{[(1-methylcyclopropyl)sulfonyl]carbamoyl}-5,16-dioxo-9′-(trifluoromethoxy)-1,1′,2′,5,6,7,8,9,10,11,13a,14,14a,15,16,16a-hexadecahydrospiro[cyclopropa[e]pyrrolo[1,2-a][1,4]diazacyclopentadecine-2,3′-pyrano[2,3-c]quinolin]-6-yl]carbamate]
EC50 (HCV genotype 1b replicon): 21.9 nM
IC50 [1]: 0.011 nM

COc1ccc2nc(C(C)C)c3c(c2c1)CC[C@]1(C[C@H]2C(=O)N[C@]4(C(=O)NS(=O)(=O)C5(C)CC5)C[C@H]4/C=C\CCCCC[C@H](NC(=O)OCC4COC4)C(=O)N2C1)O3 [Example 178, oxetan-3-ylmethyl [(2R,6S,12Z,13aS,14aR,16aS)-9′-methoxy-14a-{[(1-methylcyclopropyl)sulfonyl]carbamoyl}-5,16-dioxo-5′-(propan-2-yl)-1,1′,2′,5,6,7,8,9,10,11,13a,14,14a,15,16,16a-hexadecahydrospiro[cyclopropa[e]pyrrolo[1,2-a][1,4]diazacyclopentadecine-2,3′-pyrano[2,3-c]quinolin]-6-yl]carbamate]
EC50 (HCV genotype 1b replicon): 11.1 nM
IC50 [1]: 0.007 nM
